From patent US11180494B2, “Substituted amino acids as integrin inhibitors” (Pliant Therapeutics, Inc., priority 2018, dated 2021) come the findings set out here.

As a reminder, the IC50 is the concentration at which inhibition is half-maximal.

Some results are limits rather than exact numbers.

Chain of human integrin αvβ6 (P06756 31-992): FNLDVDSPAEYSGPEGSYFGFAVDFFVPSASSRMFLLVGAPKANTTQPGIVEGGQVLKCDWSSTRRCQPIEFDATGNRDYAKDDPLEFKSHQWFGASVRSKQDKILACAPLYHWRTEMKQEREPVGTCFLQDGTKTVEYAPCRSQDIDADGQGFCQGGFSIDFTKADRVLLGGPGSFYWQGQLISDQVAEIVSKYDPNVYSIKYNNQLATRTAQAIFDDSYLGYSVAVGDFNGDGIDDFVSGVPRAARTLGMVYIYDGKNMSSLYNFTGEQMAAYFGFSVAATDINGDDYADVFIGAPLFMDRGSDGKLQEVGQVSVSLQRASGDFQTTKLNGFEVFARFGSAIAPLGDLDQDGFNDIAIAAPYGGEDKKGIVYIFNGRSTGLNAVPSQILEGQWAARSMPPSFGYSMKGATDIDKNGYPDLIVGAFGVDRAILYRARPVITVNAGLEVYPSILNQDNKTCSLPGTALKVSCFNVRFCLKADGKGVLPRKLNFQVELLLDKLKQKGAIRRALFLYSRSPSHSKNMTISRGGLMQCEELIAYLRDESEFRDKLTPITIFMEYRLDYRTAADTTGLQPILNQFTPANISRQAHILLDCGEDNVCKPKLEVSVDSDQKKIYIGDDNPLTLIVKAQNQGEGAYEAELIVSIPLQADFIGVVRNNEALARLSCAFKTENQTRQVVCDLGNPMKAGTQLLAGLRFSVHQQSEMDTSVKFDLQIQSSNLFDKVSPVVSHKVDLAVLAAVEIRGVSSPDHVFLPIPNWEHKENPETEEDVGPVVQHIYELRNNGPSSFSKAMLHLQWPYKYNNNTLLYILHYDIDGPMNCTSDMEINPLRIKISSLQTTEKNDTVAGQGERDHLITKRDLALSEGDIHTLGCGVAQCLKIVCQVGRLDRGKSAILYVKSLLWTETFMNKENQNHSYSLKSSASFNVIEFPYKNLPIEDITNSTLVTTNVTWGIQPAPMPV
Chain of human integrin αvβ6 (P18564 22-707): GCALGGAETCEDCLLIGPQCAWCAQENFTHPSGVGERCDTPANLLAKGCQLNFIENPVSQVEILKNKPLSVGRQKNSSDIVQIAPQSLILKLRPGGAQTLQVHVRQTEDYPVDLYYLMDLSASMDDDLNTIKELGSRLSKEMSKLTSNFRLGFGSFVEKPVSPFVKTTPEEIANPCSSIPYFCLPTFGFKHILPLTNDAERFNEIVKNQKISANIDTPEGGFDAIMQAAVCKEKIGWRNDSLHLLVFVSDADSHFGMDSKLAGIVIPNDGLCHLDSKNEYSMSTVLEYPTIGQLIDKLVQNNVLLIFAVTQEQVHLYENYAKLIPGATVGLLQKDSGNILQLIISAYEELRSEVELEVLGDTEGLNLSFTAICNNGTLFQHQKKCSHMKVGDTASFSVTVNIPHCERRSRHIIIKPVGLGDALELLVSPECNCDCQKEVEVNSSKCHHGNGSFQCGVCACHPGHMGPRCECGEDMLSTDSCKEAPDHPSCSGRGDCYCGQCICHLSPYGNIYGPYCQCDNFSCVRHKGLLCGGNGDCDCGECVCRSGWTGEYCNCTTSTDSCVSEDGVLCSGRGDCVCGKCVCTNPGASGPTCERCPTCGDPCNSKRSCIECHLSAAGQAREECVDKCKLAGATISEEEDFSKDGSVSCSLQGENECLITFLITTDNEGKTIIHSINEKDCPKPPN

One assay addresses human integrin αvβ6 (Homo sapiens (Human), UniProt P06756+P18564). The assay is described as follows: Proximity-based integrin receptor binding assay (ALPHASCREEN) for inhibitor potency. Conditions: inhibition of binding of TGF-b1 LAP to human integrin αvβ6; values given in ranges. The procedure:
To gauge the potency of inhibitors of binding to human integrin αvβ6, inhibitor compounds and integrin were incubated together with TGF-b1 LAP and biotinylated anti-LAP antibody plus acceptor and donor beads, following the manufacture's recommendations. The donor beads were coated with streptavidin. […] All incubations occurred at room temperatures in 50 mM Tris-HCl, pH 7.5, 0.1% BSA supplemented with 1 mM each CaCl2 and MgCl2.
The order of reagent addition was as follows:
1. Alpha-v-beta-6 integrin, test inhibitor compound, LAP, biotinylated anti-LAP antibody and acceptor beads were all added together.
2. After 2 hours, donor beads were added. After another 30 minute incubation, samples were then read.
Integrin binding was evaluated by exciting donor beads at 680 nm, and measuring the fluorescent signal produced, between 520-620 nm, using a Biotek Instruments (Winooski, Vt., USA) SynergyNeo2 multimode plate reader. […] Data analysis for IC50 determinations was carried out by nonlinear four parameter logistic regression analysis using Dotmatics ELN Software (Core Informatics Inc., Branford, Conn.).
Regarding `O=C(N[C@@H](CCO[C@H]1C[C@H](CCc2ccc3c(n2)NCCC3)C1)C(=O)O)c1ccc2ncccc2c1` [Compound 54, N-(quinoline-6-carbonyl)-O-(trans-3-(2-(5,6,7,8-tetrahydro-1,8-naphthyridin-2-yl)ethyl)cyclobutyl)homoserine], the IC50 lay in the range of 50 to 250 nM.
The same measure, in the same setting: to `O=C(N[C@@H](CCO[C@H]1C[C@H](CCc2ccc3c(n2)NCCC3)C1)C(=O)O)c1cccc2cccnc12` [Compound 55, N-(quinoline-8-carbonyl)-O-(trans-3-(2-(5,6,7,8-tetrahydro-1,8-naphthyridin-2-yl)ethyl)cyclobutyl)homoserine] belongs 250 to 1000 nM; to `O=C(N[C@@H](CCO[C@H]1C[C@H](CCc2ccc3c(n2)NCCC3)C1)C(=O)O)c1cccc(C2CC2)c1` [Compound 56, N-(3-cyclopropylbenzoyl)-O-(trans-3-(2-(5,6,7,8-tetrahydro-1,8-naphthyridin-2-yl)ethyl)cyclobutyl)homoserine], 50 to 250 nM.
In the case of `O=C(NC(CCO[C@H]1C[C@H](CCc2ccc3c(n2)NCCC3)C1)C(=O)O)c1ccc(C2CC2)cc1` (stereo partly drawn) [Compound 57, N-(4-cyclopropylbenzoyl)-O-(trans-3-(2-(5,6,7,8-tetrahydro-, 8-naphthyridin-2-yl)ethyl)cyclobutyl)homoserine], the IC50 was in the range of 250 to 1000 nM.
Same read-out and setting: to `CCC(CC)CC(=O)N[C@H](CCO[C@H]1C[C@H](CCc2ccc3c(n2)NCCC3)C1)C(=O)O` [Compound 59, N-(3-ethylpentanoyl)-O-(trans-3-(2-(5,6,7,8-tetrahydro-1,8-naphthyridin-2-yl)ethyl)cyclobutyl)-D-homoserine] belongs over 1000 nM.
Still for that read-out and setting: to `O=C(NC(CCO[C@H]1C[C@H](CCc2ccc3c(n2)NCCC3)C1)C(=O)O)c1cccc(F)c1Cl` (stereo partly drawn) [Compound 60, N-(2-chloro-3-fluorobenzoyl)-O-(trans-3-(2-(5,6,7,8-tetrahydro-1,8-naphthyridin-2-yl)ethyl)cyclobutyl)homoserine] belongs 50 to 250 nM; to `CCC(CC)CC(=O)NC(CCO[C@H]1C[C@H](CCc2ccc3c(n2)NCCC3)C1)C(=O)O` (stereo partly drawn) [Compound 63, N-(3-ethylpentanoyl)-O-(trans-3-(2-(5,6,7,8-tetrahydro-1,8-naphthyridin-2-yl)ethyl)cyclobutyl)homoserine], under 50 nM.
Same read-out and setting: to `O=C(NC(CCO[C@H]1C[C@H](CCc2ccc3c(n2)NCCC3)C1)C(=O)O)c1cccc(F)c1Cl` (stereo partly drawn) [Compound 64, N-(2-chloro-3-fluorobenzoyl)-O-(trans-3-(2-(5,6,7,8-tetrahydro-1,8-naphthyridin-2-yl)ethyl)cyclobutyl)homoserine] belongs under 50 nM; to `O=C(N[C@@H](CCO[C@H]1C[C@@H](CCc2ccc3c(n2)NCCC3)C1)C(=O)O)c1ccc(F)c(F)c1` [Compound 66, N-(3,4-difluorobenzoyl)-O-(cis-3-(2-(5,6,7,8-tetrahydro-1,8-naphthyridin-2-yl)ethyl)cyclobutyl)homoserine], 50 to 250 nM; to `CCC(CC)CC(=O)N[C@@H](CCO[C@H]1C[C@@H](CCc2ccc3c(n2)NCCC3)C1)C(=O)O` [Compound 67, N-(3-ethylpentanoyl)-O-(cis-3-(2-(5,6,7,8-tetrahydro-1,8-naphthyridin-2-yl)ethyl)cyclobutyl)homoserine], 50 to 250 nM.
Regarding `O=C(N[C@@H](CCO[C@H]1C[C@@H](CCc2ccc3c(n2)NCCC3)C1)C(=O)O)c1ccncc1` [Compound 68, N-isonicotinoyl-O-(cis-3-(2-(5,6,7,8-tetrahydro-1,8-naphthyridin-2-yl)ethyl)cyclobutyl)homoserine], the half-maximal inhibitory concentration (IC50) was 250 to 1000 nM.
Still for that read-out and setting: then `O=C(N[C@@H](CCO[C@H]1C[C@@H](CCc2ccc3c(n2)NCCC3)C1)C(=O)O)c1cccc(-c2cncs2)c1` [Compound 69, O-(cis-3-(2-(5,6,7,8-tetrahydro-1,8-naphthyridin-2-yl)ethyl)cyclobutyl)-N-(3-(thiazol-5-yl)benzoyl)homoserine], with 250 to 1000 nM; and `O=C(O)C(CCO[C@H]1C[C@@H](CCc2ccc3c(n2)NCCC3)C1)NC(=O)[C@@H](CO)c1ccccc1` (stereo partly drawn) [Compound 70, N—((R)-3-hydroxy-2-phenylpropanoyl)-O-(cis-3-(2-(5,6,7,8-tetrahydro-1,8-naphthyridin-2-yl)ethyl)cyclobutyl)homoserine], with 50 to 250 nM.
On the same count and under the same terms, to `O=C(O)C(CCO[C@H]1C[C@@H](CCc2ccc3c(n2)NCCC3)C1)NC(=O)[C@@H](CO)c1ccccc1` (stereo partly drawn) [Compound 71, N—((R)-3-hydroxy-2-phenylpropanoyl)-O-(cis-3-(2-(5,6,7,8-tetrahydro-1,8-naphthyridin-2-yl)ethyl)cyclobutyl)homoserine] belongs over 1000 nM.
Same read-out and setting: to `Cn1cc(-c2cccc(C(=O)NC(CCO[C@H]3C[C@H](CCc4ccc5c(n4)NCCC5)C3)C(=O)O)c2)cn1` (some centres unmarked) [Compound 72] belongs under 50 nM; to `Cn1cc(-c2cccc(C(=O)NC(CCOCCCCc3ccc4c(n3)NCCC4)C(=O)O)c2)cn1` (centres unmarked) [Compound 73, N-(3-(1-methyl-1H-pyrazol-4-yl)benzoyl)-O-(4-(5,6,7,8-tetrahydro-1,8-naphthyridin-2-yl)butyl)homoserine], 50 to 250 nM; to `O=C(O)C(CCOCCCCc1ccc2c(n1)NCCC2)NC(=O)[C@@H](O)c1ccccc1` (stereo partly drawn) [Compound 74, N—((S)-2-hydroxy-2-phenylacetyl)-O-(4-(5,6,7,8-tetrahydro-1,8-naphthyridin-2-yl)butyl)homoserine], over 1000 nM.
Regarding `O=C(O)C(CCOCCCCc1ccc2c(n1)NCCC2)NC(=O)[C@@H](O)c1ccccc1` (stereo partly drawn) [Compound 75, N—((S)-2-hydroxy-2-phenylacetyl)-O-(4-(5,6,7,8-tetrahydro-1,8-naphthyridin-2-yl)butyl)homoserine], the concentration for half-maximal inhibition (IC50) was 250 to 1000 nM.
On the same count and under the same terms, then `O=C(O)[C@H](CCOCCCCc1ccc2c(n1)NCCC2)NC(=O)[C@H](O)c1ccccc1` [Compound 76, N—((R)-2-hydroxy-2-phenylacetyl)-O-(4-(5,6,7,8-tetrahydro-1,8-naphthyridin-2-yl)butyl)homoserine], with 250 to 1000 nM; and `O=C(O)C(CCO[C@H]1C[C@H](CCc2ccc3c(n2)NCCC3)C1)NC(=O)[C@@H](O)c1ccccc1` (stereo partly drawn) [Compound 78, N—((S)-2-hydroxy-2-phenylacetyl)-O-(trans-3-(2-(5,6,7,8-tetrahydro-1,8-naphthyridin-2-yl)ethyl)cyclobutyl)homoserine], with over 1000 nM.
On the same count and under the same terms, to `O=C(O)C(CCO[C@H]1C[C@H](CCc2ccc3c(n2)NCCC3)C1)NC(=O)[C@@H](O)c1ccccc1` (stereo partly drawn) [Compound 79, N—((S)-2-hydroxy-2-phenylacetyl)-O-(trans-3-(2-(5,6,7,8-tetrahydro-1,8-naphthyridin-2-yl)ethyl)cyclobutyl)homoserine] belongs 50 to 250 nM; to `O=C(O)C(CCO[C@H]1C[C@H](CCc2ccc3c(n2)NCCC3)C1)NC(=O)[C@H](O)c1ccccc1` (stereo partly drawn) [Compound 80, N—((R)-2-hydroxy-2-phenylacetyl)-O-(trans-3-(2-(5,6,7,8-tetrahydro-1,8-naphthyridin-2-yl)ethyl)cyclobutyl)homoserine], 50 to 250 nM.
Regarding `O=C(O)C(CCO[C@H]1C[C@H](CCc2ccc3c(n2)NCCC3)C1)NC(=O)[C@H](O)c1ccccc1` (stereo partly drawn) [Compound 81, N—((R)-2-hydroxy-2-phenylacetyl)-O-(trans-3-(2-(5,6,7,8-tetrahydro-1,8-naphthyridin-2-yl)ethyl)cyclobutyl)homoserine], the IC50 was over 1000 nM.
`O=C(O)C(CCO[C@H]1C[C@H](CCc2ccc3c(n2)NCCC3)C1)NC(=O)C1(c2ccccc2)CC1` (stereo partly drawn) [Compound 82, N-(1-phenylcyclopropane-1-carbonyl)-O-(trans-3-(2-(5,6,7,8-tetrahydro-1,8-naphthyridin-2-yl)ethyl)cyclobutyl)homoserine]: the IC50 was 250 to 1000 nM.
The same measure, in the same setting: to `O=C(O)C(CCO[C@H]1C[C@H](CCc2ccc3c(n2)NCCC3)C1)NC(=O)C1(c2ccccc2)CCC1` (stereo partly drawn) [Compound 84, N-(1-phenylcyclobutane-1-carbonyl)-O-(trans-3-(2-(5,6,7,8-tetrahydro-1,8-naphthyridin-2-yl)ethyl)cyclobutyl)homoserine] belongs under 50 nM.
On the same count and under the same terms, then `CC(C)(Cc1ccccc1)C(=O)NC(CCO[C@H]1C[C@H](CCc2ccc3c(n2)NCCC3)C1)C(=O)O` (stereo partly drawn) [Compound 85, N-(2,2-dimethyl-3-phenylpropanoyl)-O-(trans-3-(2-(5,6,7,8-tetrahydro-1,8-naphthyridin-2-yl)ethyl)cyclobutyl)homoserine], with 250 to 1000 nM.

Still in this assay, the particulars now being: inhibition of binding of TGF-b1 LAP to human integrin αvβ6; values given in ranges; listed as 61*.
Regarding `O=C(NC(CCO[C@H]1C[C@H](CCc2ccc3c(n2)NCCC3)C1)C(=O)O)c1cccc(-c2cncs2)c1` (stereo partly drawn) [Compound 61, O-(trans-3-(2-(5,6,7,8-tetrahydro-1,8-naphthyridin-2-yl)ethyl)cyclobutyl)-N-(3-(thiazol-5-yl)benzoyl)homoserine], the half-inhibitory concentration (IC50) is over 1000 nM.

The same assay, now with this note: inhibition of binding of TGF-b1 LAP to human integrin αvβ6; values given in ranges; listed as 65**.
`O=C(NC(CCO[C@H]1C[C@H](CCc2ccc3c(n2)NCCC3)C1)C(=O)O)c1cccc(-c2cncs2)c1` (stereo partly drawn) [Compound 65, O-(trans-3-(2-(5,6,7,8-tetrahydro-1,8-naphthyridin-2-yl)ethyl)cyclobutyl)-N-(3-(thiazol-5-yl)benzoyl)homoserine]: the half-inhibitory concentration (IC50) was under 50 nM.

Staying with this assay, now noted: inhibition of binding of TGF-b1 LAP to human integrin αvβ6; values given in ranges; listed as 83*.
`CC(C)(C(=O)NC(CCO[C@H]1C[C@H](CCc2ccc3c(n2)NCCC3)C1)C(=O)O)c1ccccc1` (stereo partly drawn) [Compound 83, N-(2-methyl-2-phenylpropanoyl)-O-(trans-3-(2-(5,6,7,8-tetrahydro-1,8-naphthyridin-2-yl)ethyl)cyclobutyl)homoserine]: the IC50 was over 1000 nM.
